The results in this text go back to ChEMBL document CHEMBL3244339, “Antitumor 1-(X-aryl)-3,3-dialkyltriazenes. 1. Quantitative structure-activity relationships vs. L1210 leukemia in mice” (J Med Chem, 1978).

The subject of data set [1] is L1210. Nature of the data set: Antitumor activity against mouse L1210 cells allografted in mouse assessed as increase of host lifespan of 110 days. It is filed as functional, cell-based.
Data set [2] in a line: Aqueous phase distribution coefficient, log P of the compound in phosphate buffer at pH 7.4. It is filed as physicochemical.
The species named for the next data set is Mus musculus. Nature of the data set: Toxicity in mouse L1210 cells allografted mouse assessed as mortality up to 5 days. Format: organism-based. The following applies: l1210, 120 h.
A short description of data set [3]: Aqueous phase distribution coefficient, log P of the compound in 0.01 M NaOH. Format: physicochemical.
In data set [4] the test system is L1210. Kind of data set: Antitumor activity against mouse L1210 cells allografted in mouse assessed as increase of host lifespan. Format: functional.
A short description of data set [5]: Distribution coefficient, log P of the compound. It is filed as physicochemical. The following applies: octanol/water; read-out: logP.

Each structure is given as a SMILES string. Activity calls are given as the source filed them. The rule behind the calls is not given here.

What is called logD is the decadic logarithm of the distribution of all forms, ionised or not, between an organic phase and buffer at a given pH. A higher logD goes with a more lipophilic compound. As for `CSc1ccccc1/N=N/N(C)C`, in the data set on L1210 [1], the result was inactive. In data set [2], the logD is 3.13.

For the compound `COc1ccccc1/N=N/N(C)C`, the Activity entry in the data set filed under Mus musculus is recorded as “Toxic”. The pH-dependent lipophilicity (logD) in data set [2] is 2.34.

For orientation: logP means a log measure of how a compound divides between an organic and an aqueous phase. On to `CN(C)/N=N/c1ccccc1I`, for which, in the data set with L1210 [1], the result was inactive. The compound further returned a log partition coefficient (logP) in data set [3] of 3.5.

Regarding `CN(C)/N=N/c1ccccc1`, the “log(1/C)” value in the data set on L1210 [4] is reported as 3.85. Also, the log partition coefficient (logP) in data set [5] came out at 2.59. The logD in data set [2] worked out at 2.59.

`CN(C)/N=N/c1ccccc1CO`: the Activity result in the data set filed under Mus musculus is given as “Toxic”. Further, the log partition coefficient (logP) in data set [3] was determined as 1.73.

With `CN(C)/N=N/c1ccccc1C(N)=O`, in the data set on L1210 [4], the “log(1/C)” value came out at 3.31. In addition, in data set [5], the log partition coefficient (logP) came to 1.73. For the same compound, the logD in data set [2] turned out to be 1.73.

With `CCCCCCCCN(C)/N=N/c1nc[nH]c1C(N)=O`, the “log(1/C)” value in the data set on L1210 [4] is given as 3. In addition, the lipophilicity (logP) came to 3.2 in data set [5] and 3.22 in data set [3].

On to `CCCCCCCCN(C)/N=N/c1ccccc1C(=O)O`, for which the “log(1/C)” value in the data set with L1210 [4] is 3.47. The logP in data set [5] and in data set [3] was 0.24 each time.
